Square brackets hold non-standard residues; d marks the D form. Ends that are not written are not given here. 1Nal = N[C@@H](Cc1cccc2ccccc12)C(=O)O; Tle = CC(C)(C)[C@H](N)C(=O)O; βAla = NCCC(=O)O; Sar = CNCC(=O)O
What was measured:
CAIX [1] = biological target: T1, CAIX (Homo sapiens, UniProt Q16790); assay: CAIX competition binding assay (competition fluorescence polarization); conditions: fluorescent ligand A-(CAECWIDGWVPC)-A-Sar6-K(Fl)
Description: CAIX Competition Binding Assay Affinity of the peptides of the invention for human CAIX (Ki) was determined using a competition fluorescence polarization assay analogous to that described in Dubois et al. (2011) Radiotherapy and Oncology 99(3), 424-43 using A-(CAECWIDGWVPC)-A-Sar6-K(Fl) (SEQ ID NO: 5) as the fluorescent ligand.
A Ki value designated “A” denotes a Ki of ≤50 nM; a Ki value designated “B” denotes a K, of >50 nM and ≤100 nM; a Ki value designated “C” denotes a Ki of >100 nM and ≤1,000 nM; and a Ki value designated “D” denotes a Ki of >1,000 nM.

MT1-MMP = MT1-MMP (Homo sapiens, UniProt P50281); conditions: bicyclic peptide formed with TBMB scaffold; MT1-MMP binder; cited from earlier work
CAIX [2] = biological target: T1, CAIX; conditions: bicyclic peptide formed with TBMB scaffold; CAIX binder; cited from earlier work

| Compound | Ki (CAIX [1]) [nM] | other results |
| --- | --- | --- |
| CC(C)[C@@H]1NC(=O)[C@H](Cc2c[nH]c3ccccc23)NC(=O)[C@@H]2CSCCC(=O)N3CCN(CCN(CC3)C(=O)CCSC[C@H](NC(=O)[C@H](C)NC(=O)CN(C)C(=O)CN(C)C(=O)CN(C)C(=O)CN(C)C(=O)CN(C)C(=O)CN(C)C(=O)CN(C)C(=O)CN(C)C(=O)CN(C)C(=O)CN(C)C(=O)CCN)C(=O)N[C@@H]([C@@H](C)O)C(=O)N[C@@H](CCC(=O)O)C(=O)N2)C(=O)CCSC[C@@H](C(N)=O)NC(=O)[C@@H]2CCCN2C(=O)[C@H](C(C)C)NC(=O)[C@H](Cc2c[nH]c3ccccc23)NC(=O)CNC(=O)[C@H](CC(=O)O)NC1=O [Compound I-22] | 100 to 1000 | – |
| CC(C)[C@@H]1NC(=O)[C@H](Cc2c[nH]c3ccccc23)NC(=O)[C@@H]2CSCC(=O)N3CC45CN(C[C@@]4(CN(C5)C(=O)CSC[C@H](NC(=O)[C@H](C)NC(=O)CN(C)C(=O)CN(C)C(=O)CN(C)C(=O)CN(C)C(=O)CN(C)C(=O)CN(C)C(=O)CN(C)C(=O)CN(C)C(=O)CN(C)C(=O)CN(C)C(=O)CCN)C(=O)N[C@@H]([C@@H](C)O)C(=O)N[C@@H](CCC(=O)O)C(=O)N2)C3)C(=O)CSC[C@@H](C(N)=O)NC(=O)[C@@H]2CCCN2C(=O)[C@H](C(C)C)NC(=O)[C@H](Cc2c[nH]c3ccccc23)NC(=O)CNC(=O)[C@H](CC(=O)O)NC1=O [Compound I-23] | > 1000 | – |
| CC(C)[C@@H]1NC(=O)[C@H](Cc2c[nH]c3ccccc23)NC(=O)[C@@H]2CSCCC(=O)N3CC45CN(CC4(CN(C5)C(=O)CCSC[C@H](NC(=O)[C@H](C)NC(=O)CN(C)C(=O)CN(C)C(=O)CN(C)C(=O)CN(C)C(=O)CN(C)C(=O)CN(C)C(=O)CN(C)C(=O)CN(C)C(=O)CN(C)C(=O)CN(C)C(=O)CCN)C(=O)N[C@@H]([C@@H](C)O)C(=O)N[C@@H](CCC(=O)O)C(=O)N2)C3)C(=O)CCSC[C@@H](C(=O)O)NC(=O)[C@@H]2CCCN2C(=O)[C@H](C(C)C)NC(=O)[C@H](Cc2c[nH]c3ccccc23)NC(=O)CNC(=O)[C@H](CC(=O)O)NC1=O [Compound I-24] | > 1000 | – |
| CC(C)[C@@H]1NC(=O)[C@H](Cc2c[nH]c3ccccc23)NC(=O)[C@@H]2CSCC(=O)N3CCOCCN(CCOCCN(CCOCC3)C(=O)CSC[C@H](NC(=O)[C@H](C)NC(=O)CN(C)C(=O)CN(C)C(=O)CN(C)C(=O)CN(C)C(=O)CN(C)C(=O)CN(C)C(=O)CN(C)C(=O)CN(C)C(=O)CN(C)C(=O)CN(C)C(=O)CCN)C(=O)N[C@@H]([C@@H](C)O)C(=O)N[C@@H](CCC(=O)O)C(=O)N2)C(=O)CSC[C@@H](C(=O)O)NC(=O)[C@@H]2CCCN2C(=O)[C@H](C(C)C)NC(=O)[C@H](Cc2c[nH]c3ccccc23)NC(=O)CNC(=O)[C@H](CC(=O)O)NC1=O [Compound I-26] | 100 to 1000 | – |
| CC(C)[C@@H]1NC(=O)[C@H](Cc2c[nH]c3ccccc23)NC(=O)[C@@H]2CSCCS(=O)(=O)N3CCN(CCN(CC3)S(=O)(=O)CCSC[C@H](NC(=O)[C@H](C)NC(=O)CN(C)C(=O)CN(C)C(=O)CN(C)C(=O)CN(C)C(=O)CN(C)C(=O)CN(C)C(=O)CN(C)C(=O)CN(C)C(=O)CN(C)C(=O)CN(C)C(=O)CCN)C(=O)N[C@@H]([C@@H](C)O)C(=O)N[C@@H](CCC(=O)O)C(=O)N2)S(=O)(=O)CCSC[C@@H](C(=O)O)NC(=O)[C@@H]2CCCN2C(=O)[C@H](C(C)C)NC(=O)[C@H](Cc2c[nH]c3ccccc23)NC(=O)CNC(=O)[C@H](CC(=O)O)NC1=O [Compound I-62] | 100 to 1000 | – |
| CC(C)[C@@H]1NC(=O)[C@H](Cc2c[nH]c3ccccc23)NC(=O)[C@@H]2CSCC(=O)NCCN(CCNC(=O)CSC[C@@H](C(N)=O)NC(=O)[C@@H]3CCCN3C(=O)[C@H](C(C)C)NC(=O)[C@H](Cc3c[nH]c4ccccc34)NC(=O)CNC(=O)[C@H](CC(=O)O)NC1=O)CCNC(=O)CSC[C@H](NC(=O)[C@H](C)NC(=O)CN(C)C(=O)CN(C)C(=O)CN(C)C(=O)CN(C)C(=O)CN(C)C(=O)CN(C)C(=O)CN(C)C(=O)CN(C)C(=O)CN(C)C(=O)CN(C)C(=O)CCN)C(=O)N[C@@H]([C@@H](C)O)C(=O)N[C@@H](CCC(=O)O)C(=O)N2 [Compound I-63] | ≤ 50 | – |
| βAla-Sar10-A-C(D-Ala)NE(1Nal)(D-Ala)CEDFYD(tBuGLy)C ([βAla][Sar][Sar][Sar][Sar][Sar][Sar][Sar][Sar][Sar][Sar]AC[dA]NE[1Nal][dA]CEDFYD[Tle]C; cysteine pairing not given here) [17-69-07-N241] | – | Kd (MT1-MMP): 1.2 nM |
| βAla-Sar10-A-CTECWVDGWVPC [Compound 2] | – | Kd (CAIX [2]): 10 nM |

Reference: patent US10857196B2, “Bicyclic peptide ligands and uses thereof” (BicycleTx Limited, priority 2017, dated 2020)
